Assay results from ChEMBL document CHEMBL1201862, “PubChem BioAssay data set” (2004).
Active and inactive are the calls of the source.

How the values were obtained:
[1] = Luminescence Cell-Based Dose Response to Identify Activators of 5'UTR Stem-Loop Driven Prion Protein mRNA Translation in H4-C Neuroglioblastoma Cells. [Related pubchem assays: 1829 (Project Summary), 1814 (Primary HTS)]; type: functional
[2] = Luminescence Cell-Based Dose Response HTS to Identify Activators of Luciferase Translation or Activity in H4 […] Cells. [Related pubchem assays: 1829 (Project Summary), 1814 (Primary HTS)]; type: functional
H4 = assay: Luminescence Cell-Based Dose Response HTS to Identify Activators of 5'UTR Stem-Loop Driven Prion Protein mRNA Translation in H4 Neuroglioblastoma Cells. [Related pubchem assays: 1829 (Project Summary), 1814 (Primary HTS)]; type: functional; details: Homo sapiens
[3] = Luminescence Cell-Based Dose Response to Identify Activators of Luciferase Translation or Activity in H4-C Neuroglioblastoma Cells. [Related pubchem assays: 1829 (Project Summary), 1814 (Primary HTS)]; type: functional
[4] = Luminescence Cell-Based Dose Confirmation to Identify Activators of 5'UTR Stem-Loop Driven Alpha-Synuclein mRNA Translation in H4 Neuroglioblastoma Cells. [Related pubchem assays: 1829 (Project Summary), 1814 (Primary HTS)]; type: functional
[5] = target: T1, High affinity choline transporter 1 (Homo sapiens, UniProt Q9GZV3); assay: CHT inhibitors, dose response, cell-based, 5-point CRC, membrane potential dye (AID 504840); type: functional
T1 sequence (Q9GZV3 whole entry): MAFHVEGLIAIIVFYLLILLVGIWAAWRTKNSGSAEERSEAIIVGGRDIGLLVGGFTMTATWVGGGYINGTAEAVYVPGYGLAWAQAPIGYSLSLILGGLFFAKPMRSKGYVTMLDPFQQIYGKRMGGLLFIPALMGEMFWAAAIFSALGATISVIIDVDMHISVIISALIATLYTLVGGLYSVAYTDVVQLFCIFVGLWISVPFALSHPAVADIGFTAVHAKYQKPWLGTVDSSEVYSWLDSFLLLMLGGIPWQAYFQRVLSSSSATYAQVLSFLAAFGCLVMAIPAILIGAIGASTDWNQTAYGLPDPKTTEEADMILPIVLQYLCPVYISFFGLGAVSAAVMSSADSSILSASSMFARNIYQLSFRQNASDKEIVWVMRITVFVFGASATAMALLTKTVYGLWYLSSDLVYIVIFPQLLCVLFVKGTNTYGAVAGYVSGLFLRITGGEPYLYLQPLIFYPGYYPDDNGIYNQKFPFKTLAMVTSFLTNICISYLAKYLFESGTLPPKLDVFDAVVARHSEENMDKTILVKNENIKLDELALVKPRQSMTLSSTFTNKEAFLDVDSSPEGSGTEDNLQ

[6] = target: T2, DNA repair protein RAD52 homolog (Homo sapiens, UniProt P43351); type: functional, biochemical
T2 sequence (P43351 whole entry): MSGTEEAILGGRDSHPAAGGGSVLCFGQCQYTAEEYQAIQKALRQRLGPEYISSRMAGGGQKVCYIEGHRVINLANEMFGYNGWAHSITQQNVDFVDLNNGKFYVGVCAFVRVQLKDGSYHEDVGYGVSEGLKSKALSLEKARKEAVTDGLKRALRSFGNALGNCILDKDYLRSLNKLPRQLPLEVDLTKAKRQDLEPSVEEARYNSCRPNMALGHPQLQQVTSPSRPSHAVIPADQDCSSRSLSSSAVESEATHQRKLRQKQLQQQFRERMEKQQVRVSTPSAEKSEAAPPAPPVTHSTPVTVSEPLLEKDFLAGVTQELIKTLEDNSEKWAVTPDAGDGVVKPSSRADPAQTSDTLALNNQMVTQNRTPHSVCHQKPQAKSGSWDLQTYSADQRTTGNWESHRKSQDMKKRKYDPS

Nonstructural protein 1 = Nonstructural protein 1 (Influenza A virus, UniProt Q194T2); type: functional, Influenza A virus (A/California/07/2009(H1N1))
[7] = inhibitors of intracellular T. cruzi replication, confirmation, NIH3T3 host cells, beta-gal luminescence (AID 2044); type: functional, cell-based;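 note: intracellular parasites grown in NIH/3T3 mouse fibroblasts as host cells; luminescent beta-galactosidase reporter signal from transgenic T. cruzi replicating inside host cells; inhibitors lower the luminescence signal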
[8] = cytotoxicity toward NIH3T3 fibroblasts, dose response, counter-screen, cell-based, ATP luminescence, mouse fibroblasts (AID 2010); type: functional;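 note: cells exposed to compound for about 90 hours before reading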
Large T antigen = Large T antigen (Simian virus 40, UniProt P03070); type: functional, Betapolyomavirus macacae;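 note: Confirmatory-stage PubChem screen for compounds that inhibit SV40 T antigen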
[9] = target: Induced myeloid leukemia cell differentiation protein Mcl-1 (Homo sapiens, UniProt Q07820); type: functional
[10] = tested on: Streptococcus sp. 'group A'; assay: growth inhibition of control SK(-) GAS strain, dose response, counter-screen for streptokinase expression inhibitor project, luminescence, kanamycin, BacTiterGlo, confirmation (AID 1900); type: functional, organism-based
Streptococcus = assay: Group A Streptococcus viability loss, dose response, counter-screen for streptokinase expression inhibitor project, luminescence, BacTiterGlo (AID 1915); type: functional, organism-based;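 note: potency for reduction of bacterial viability or growth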
Caspase-3 = target: T3, Caspase-3 (Homo sapiens, UniProt P42574); type: functional;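 note: Dose-response selectivity test against caspase-3 for candidate inhibitors of sentrin-specific proteases (SENPs)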
T3 sequence (P42574 whole entry): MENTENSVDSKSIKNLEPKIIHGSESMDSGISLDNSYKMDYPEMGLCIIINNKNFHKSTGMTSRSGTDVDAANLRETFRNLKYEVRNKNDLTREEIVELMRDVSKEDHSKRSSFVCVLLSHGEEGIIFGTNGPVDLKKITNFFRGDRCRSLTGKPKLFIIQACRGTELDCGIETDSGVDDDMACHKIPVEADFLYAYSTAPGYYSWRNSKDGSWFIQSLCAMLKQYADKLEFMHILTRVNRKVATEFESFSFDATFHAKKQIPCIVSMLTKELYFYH

[11] = target: T4, Sentrin-specific protease 7 (Homo sapiens, UniProt Q9BQF6); type: functional;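 note: Luminescence-based dose-response confirmation of ultra-high-throughput screening hits, measuring inhibition of SENP7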
T4 sequence (Q9BQF6 whole entry): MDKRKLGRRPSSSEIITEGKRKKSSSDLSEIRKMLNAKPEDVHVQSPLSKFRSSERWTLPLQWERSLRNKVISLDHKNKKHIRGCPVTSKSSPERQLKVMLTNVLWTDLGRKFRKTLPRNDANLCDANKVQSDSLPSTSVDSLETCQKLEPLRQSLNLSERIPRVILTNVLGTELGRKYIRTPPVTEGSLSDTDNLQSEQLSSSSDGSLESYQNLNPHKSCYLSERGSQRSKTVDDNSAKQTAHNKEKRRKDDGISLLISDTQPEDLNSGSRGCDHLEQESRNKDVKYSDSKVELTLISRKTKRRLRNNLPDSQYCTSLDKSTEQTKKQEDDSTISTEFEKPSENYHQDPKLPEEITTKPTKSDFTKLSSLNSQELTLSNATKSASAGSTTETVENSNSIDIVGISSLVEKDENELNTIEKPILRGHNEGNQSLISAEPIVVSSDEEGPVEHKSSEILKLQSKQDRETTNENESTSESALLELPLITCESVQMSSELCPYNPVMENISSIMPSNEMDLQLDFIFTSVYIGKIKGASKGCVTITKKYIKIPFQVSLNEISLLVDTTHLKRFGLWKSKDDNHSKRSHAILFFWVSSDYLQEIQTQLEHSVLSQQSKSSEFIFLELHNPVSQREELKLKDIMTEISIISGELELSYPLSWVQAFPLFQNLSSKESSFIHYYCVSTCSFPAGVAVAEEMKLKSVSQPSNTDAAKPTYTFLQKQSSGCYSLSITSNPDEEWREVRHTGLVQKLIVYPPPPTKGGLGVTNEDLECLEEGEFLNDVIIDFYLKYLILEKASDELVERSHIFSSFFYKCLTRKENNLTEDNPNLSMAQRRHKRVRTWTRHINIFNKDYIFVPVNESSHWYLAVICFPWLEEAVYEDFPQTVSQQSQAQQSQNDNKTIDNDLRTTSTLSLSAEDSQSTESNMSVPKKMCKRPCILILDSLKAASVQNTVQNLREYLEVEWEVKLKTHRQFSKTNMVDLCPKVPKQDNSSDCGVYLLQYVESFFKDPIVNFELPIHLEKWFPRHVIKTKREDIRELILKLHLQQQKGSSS

[12] = target: T5, Sentrin-specific protease 6 (Homo sapiens, UniProt Q9GZR1); type: functional;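 note: Luminescence-based dose-response confirmatory assay of SENP6 inhibition, following up an ultra-high-throughput screen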
T5 sequence (Q9GZR1 whole entry): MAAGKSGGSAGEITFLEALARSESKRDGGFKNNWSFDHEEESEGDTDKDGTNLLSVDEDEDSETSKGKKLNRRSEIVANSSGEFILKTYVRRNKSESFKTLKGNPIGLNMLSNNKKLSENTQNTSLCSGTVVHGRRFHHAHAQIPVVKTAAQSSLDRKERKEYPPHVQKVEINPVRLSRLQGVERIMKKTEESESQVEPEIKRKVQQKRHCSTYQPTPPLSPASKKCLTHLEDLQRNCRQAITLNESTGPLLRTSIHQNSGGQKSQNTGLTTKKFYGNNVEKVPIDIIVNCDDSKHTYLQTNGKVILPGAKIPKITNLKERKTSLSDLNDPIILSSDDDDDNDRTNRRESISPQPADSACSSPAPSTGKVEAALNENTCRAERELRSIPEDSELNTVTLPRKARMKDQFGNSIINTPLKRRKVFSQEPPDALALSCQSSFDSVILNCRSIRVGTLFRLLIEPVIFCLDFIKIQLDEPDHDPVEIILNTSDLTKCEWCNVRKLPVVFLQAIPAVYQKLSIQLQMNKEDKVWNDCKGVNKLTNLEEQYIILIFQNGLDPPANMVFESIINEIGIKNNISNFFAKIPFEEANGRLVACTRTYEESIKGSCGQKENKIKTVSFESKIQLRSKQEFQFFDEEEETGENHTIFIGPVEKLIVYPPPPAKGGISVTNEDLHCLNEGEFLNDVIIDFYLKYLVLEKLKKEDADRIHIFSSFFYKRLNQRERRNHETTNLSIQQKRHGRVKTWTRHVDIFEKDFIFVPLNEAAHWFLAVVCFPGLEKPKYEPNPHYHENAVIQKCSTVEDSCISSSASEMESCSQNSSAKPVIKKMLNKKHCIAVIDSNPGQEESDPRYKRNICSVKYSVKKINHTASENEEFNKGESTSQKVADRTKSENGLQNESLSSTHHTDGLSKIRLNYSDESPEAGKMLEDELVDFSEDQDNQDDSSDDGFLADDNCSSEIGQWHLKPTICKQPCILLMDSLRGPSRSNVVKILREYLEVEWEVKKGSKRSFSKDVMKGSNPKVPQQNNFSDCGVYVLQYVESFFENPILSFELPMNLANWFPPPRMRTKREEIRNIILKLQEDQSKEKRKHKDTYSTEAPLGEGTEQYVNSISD

[13] = target: T6, Sentrin-specific protease 8 (Homo sapiens, UniProt Q96LD8); type: functional;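 note: luminescence read-out of SENP8 inhibition, dose-response confirmation following an ultra-high-throughput screen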
T6 sequence (Q96LD8 whole entry): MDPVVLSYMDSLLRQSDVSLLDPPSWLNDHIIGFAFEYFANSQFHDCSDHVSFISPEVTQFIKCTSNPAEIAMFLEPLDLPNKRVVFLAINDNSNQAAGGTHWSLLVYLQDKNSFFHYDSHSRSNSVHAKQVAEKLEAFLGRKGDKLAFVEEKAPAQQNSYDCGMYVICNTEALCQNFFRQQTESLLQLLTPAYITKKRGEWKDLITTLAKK

Fatty acid synthase [14] = target: T7, Fatty acid synthase (Homo sapiens, UniProt P49327); assay: FAS thioesterase domain inhibitors, dose response, biochemical, endpoint fluorescence intensity, uHTS hits (AID 624327); type: functional;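 note: fluorescence from hydrolysis of an O-methyl fluorescein acyl ester substrate by the enzyme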
Fatty acid synthase [15] = target: T7, Fatty acid synthase; assay: FAS thioesterase domain inhibitors, dose response, biochemical, kinetic fluorescence intensity (AID 624326); type: functional;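 note: rate of fluorescence rise from hydrolysis of a fluorogenic O-methyl fluorescein ester substrate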

T7 sequence (P49327 whole entry, the tested form may be a part): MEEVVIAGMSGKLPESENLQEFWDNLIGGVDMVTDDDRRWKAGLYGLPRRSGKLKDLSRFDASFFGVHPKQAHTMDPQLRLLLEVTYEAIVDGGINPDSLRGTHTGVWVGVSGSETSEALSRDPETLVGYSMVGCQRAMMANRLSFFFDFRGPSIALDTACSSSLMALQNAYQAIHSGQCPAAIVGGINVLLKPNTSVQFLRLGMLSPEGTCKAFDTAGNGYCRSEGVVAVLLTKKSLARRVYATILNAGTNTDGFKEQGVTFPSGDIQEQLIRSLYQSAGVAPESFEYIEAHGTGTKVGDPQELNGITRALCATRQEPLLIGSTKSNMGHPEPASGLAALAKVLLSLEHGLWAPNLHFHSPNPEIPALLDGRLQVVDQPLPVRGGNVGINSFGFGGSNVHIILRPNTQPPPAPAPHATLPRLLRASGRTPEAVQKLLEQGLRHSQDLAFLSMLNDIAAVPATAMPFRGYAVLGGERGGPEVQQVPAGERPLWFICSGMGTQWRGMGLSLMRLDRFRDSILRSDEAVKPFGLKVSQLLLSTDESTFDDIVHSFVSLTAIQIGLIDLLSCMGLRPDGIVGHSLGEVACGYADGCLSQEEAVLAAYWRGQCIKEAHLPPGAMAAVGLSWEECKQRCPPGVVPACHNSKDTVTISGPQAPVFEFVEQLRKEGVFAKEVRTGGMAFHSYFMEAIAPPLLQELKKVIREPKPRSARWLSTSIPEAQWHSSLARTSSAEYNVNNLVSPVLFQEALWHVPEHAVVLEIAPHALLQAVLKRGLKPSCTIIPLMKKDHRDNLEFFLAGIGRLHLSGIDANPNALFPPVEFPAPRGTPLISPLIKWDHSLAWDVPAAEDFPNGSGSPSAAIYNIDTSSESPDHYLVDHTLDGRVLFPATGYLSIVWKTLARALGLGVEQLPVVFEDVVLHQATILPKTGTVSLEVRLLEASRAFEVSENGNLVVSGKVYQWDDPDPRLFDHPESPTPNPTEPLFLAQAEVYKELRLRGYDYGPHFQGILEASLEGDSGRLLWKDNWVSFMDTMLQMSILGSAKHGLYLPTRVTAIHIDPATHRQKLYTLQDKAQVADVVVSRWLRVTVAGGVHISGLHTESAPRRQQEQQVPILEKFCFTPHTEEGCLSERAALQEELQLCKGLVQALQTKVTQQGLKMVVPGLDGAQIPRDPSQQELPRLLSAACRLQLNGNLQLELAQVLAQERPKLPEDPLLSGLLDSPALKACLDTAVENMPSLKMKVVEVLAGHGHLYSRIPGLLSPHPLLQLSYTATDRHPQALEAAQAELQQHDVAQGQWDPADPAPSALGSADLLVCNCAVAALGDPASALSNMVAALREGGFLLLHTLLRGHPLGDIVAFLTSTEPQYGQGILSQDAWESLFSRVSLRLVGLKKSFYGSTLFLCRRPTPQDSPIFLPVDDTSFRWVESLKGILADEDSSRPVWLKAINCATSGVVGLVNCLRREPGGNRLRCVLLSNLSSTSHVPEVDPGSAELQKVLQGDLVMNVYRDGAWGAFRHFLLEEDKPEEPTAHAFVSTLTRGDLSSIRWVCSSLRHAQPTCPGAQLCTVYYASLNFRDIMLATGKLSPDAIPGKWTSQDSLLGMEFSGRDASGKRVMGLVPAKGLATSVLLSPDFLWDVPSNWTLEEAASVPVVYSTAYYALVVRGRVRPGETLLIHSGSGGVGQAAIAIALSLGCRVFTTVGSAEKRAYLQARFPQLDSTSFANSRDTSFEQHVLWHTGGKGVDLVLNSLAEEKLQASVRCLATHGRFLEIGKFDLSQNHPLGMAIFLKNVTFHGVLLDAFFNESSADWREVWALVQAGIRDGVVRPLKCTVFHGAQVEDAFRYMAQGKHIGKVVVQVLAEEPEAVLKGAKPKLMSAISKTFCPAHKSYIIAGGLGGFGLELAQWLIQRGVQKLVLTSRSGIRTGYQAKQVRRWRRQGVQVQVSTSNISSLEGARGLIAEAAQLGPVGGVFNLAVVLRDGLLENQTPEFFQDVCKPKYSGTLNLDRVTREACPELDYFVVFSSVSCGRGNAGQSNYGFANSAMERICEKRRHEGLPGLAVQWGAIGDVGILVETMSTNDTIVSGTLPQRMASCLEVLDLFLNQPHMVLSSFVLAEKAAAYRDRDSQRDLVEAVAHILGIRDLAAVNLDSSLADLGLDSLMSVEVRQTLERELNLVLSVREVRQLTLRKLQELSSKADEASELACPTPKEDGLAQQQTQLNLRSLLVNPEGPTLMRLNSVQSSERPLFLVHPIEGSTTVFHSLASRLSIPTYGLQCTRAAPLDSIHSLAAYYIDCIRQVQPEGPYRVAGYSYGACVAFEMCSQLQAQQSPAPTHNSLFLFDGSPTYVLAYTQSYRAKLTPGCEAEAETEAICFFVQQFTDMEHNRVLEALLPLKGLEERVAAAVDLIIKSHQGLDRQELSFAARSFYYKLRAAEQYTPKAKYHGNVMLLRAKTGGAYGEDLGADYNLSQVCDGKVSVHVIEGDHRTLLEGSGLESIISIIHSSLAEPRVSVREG
Sequence of Induced myeloid leukemia cell differentiation protein Mcl-1 (Q07820 whole entry): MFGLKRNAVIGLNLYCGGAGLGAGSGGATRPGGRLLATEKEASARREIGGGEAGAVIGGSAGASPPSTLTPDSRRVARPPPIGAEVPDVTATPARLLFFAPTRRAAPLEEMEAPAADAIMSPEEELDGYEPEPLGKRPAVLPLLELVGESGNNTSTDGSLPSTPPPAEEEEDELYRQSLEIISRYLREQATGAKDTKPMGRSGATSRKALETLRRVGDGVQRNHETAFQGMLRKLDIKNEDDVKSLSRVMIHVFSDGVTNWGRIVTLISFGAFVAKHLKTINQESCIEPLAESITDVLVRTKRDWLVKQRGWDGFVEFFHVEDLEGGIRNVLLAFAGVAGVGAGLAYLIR
Sequence of Large T antigen (P03070 whole entry): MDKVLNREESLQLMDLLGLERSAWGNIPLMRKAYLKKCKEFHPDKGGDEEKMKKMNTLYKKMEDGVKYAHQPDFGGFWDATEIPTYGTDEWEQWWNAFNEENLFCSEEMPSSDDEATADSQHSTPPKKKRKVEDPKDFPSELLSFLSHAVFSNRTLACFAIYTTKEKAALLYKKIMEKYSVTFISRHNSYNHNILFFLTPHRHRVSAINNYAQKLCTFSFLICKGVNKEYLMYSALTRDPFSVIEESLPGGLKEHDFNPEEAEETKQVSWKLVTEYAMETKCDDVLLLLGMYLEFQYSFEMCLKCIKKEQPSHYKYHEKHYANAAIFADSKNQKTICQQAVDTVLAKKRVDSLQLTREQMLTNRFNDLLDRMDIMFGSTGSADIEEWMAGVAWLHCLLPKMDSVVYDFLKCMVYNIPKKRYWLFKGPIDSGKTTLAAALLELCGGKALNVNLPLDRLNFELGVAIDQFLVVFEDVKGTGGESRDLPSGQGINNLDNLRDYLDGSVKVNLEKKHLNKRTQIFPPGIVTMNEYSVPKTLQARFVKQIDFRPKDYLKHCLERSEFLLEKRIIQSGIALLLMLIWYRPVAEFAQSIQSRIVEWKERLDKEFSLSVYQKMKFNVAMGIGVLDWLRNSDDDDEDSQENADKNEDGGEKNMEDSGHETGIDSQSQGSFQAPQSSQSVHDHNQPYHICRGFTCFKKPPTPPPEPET
Sequence of Nonstructural protein 1 (Q194T2 whole entry): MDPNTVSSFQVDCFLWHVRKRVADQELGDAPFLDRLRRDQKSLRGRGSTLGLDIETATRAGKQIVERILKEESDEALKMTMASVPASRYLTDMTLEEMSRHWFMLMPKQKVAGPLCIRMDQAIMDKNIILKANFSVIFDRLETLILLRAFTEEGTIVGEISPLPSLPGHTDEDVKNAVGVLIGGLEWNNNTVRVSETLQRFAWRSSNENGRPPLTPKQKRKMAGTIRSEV

SMILES: COc1ccc(N=C(S)Nc2cc(C)ccn2)c(OC)c1
- EC50 [1]: 0.393 µM (active)
- EC50 [2]: < 0.1 µM (inconclusive)
- EC50 (H4): > 120 µM (not active)
- EC50 [3]: > 12 µM (not active)
- EC50 [4]: 0.256 µM (active)

SMILES: O=C(/C=C/c1cn(-c2ccccc2)nc1-c1ccc2c(c1)OCCO2)NCCCN1CCOCC1
- IC50 [5]: 20 µM (active)
- AC50 [6]: 16.1 µM (active)

SMILES: CCOc1cccc(=NC2CCCCC2)c2c(C)[nH]c(C)c12
- IC50 (Nonstructural protein 1): 68.8 µM (active)
- AC50 [6]: 3.49 µM (active)

SMILES: COc1ccc(N2CCc3c(C)nc4c(OC)cc(OC)cc4c32)cc1
- EC50 [7]: 0.97 µM (active)
- EC50 [8]: 36.5 µM (active)
- AC50 [6]: 3.96 µM (active)

SMILES: CCS(=O)(=O)c1nc(S(=O)(=O)c2ccc(C)cc2)c(N2CC(C)OC(C)C2)s1 (configuration not stated)
- EC50 [1]: > 12 µM (not active)
- EC50 [2]: < 0.1 µM (active)
- EC50 (H4): > 120 µM (not active)
- EC50 [3]: > 12 µM (not active)
- EC50 [4]: 0.81 µM (active)

SMILES: O=C(NCc1ccccc1)c1cnc2cc3c(cc2c1O)OCCO3
- EC50 [1]: 0.421 µM (active)
- EC50 [2]: < 0.1 µM (active)
- EC50 (H4): 0.282 µM (active)
- EC50 [3]: 0.334 µM (active)
- EC50 [4]: 0.2 µM (active)

SMILES: CN(C)c1ccc(Nc2nc(N)c([N+](=O)[O-])c(N3CCOCC3)n2)cc1
- IC50 (Large T antigen): 3.84 µM (active)
- IC50 [9]: 0.8 µM (active)

SMILES: O=C(O)c1ccc(N/N=C/c2ccc(-c3cc(Cl)ccc3Cl)o2)cc1
- EC50 [1]: 0.384 µM (active)
- EC50 [10]: 2.44 µM (active)
- EC50 (H4): < 0.1 µM (active)
- EC50 [3]: 0.482 µM (active)
- EC50 [4]: 0.121 µM (active)
- IC50 [9]: 2.17 µM (active)
- EC50 (Streptococcus): 2.61 µM (active)
- IC50 (Caspase-3): > 100 µM (inactive)
- IC50 [11]: > 100 µM (inactive)
- IC50 [12]: > 100 µM (inactive)
- IC50 [13]: > 100 µM (inactive)
- IC50 (Fatty acid synthase [14]): 3.61 µM (active)
- IC50 (Fatty acid synthase [15]): 4.39 µM (active)

SMILES: O=C(N/N=C/c1ccc2c(c1)OCO2)c1ccc(Br)o1
- EC50 [1]: 0.855 µM (active)
- EC50 [2]: < 0.1 µM (inconclusive)
- EC50 (H4): 18.6 µM (inconclusive)
- EC50 [3]: 0.433 µM (active)
- EC50 [4]: 0.371 µM (active)
